“And” between values parts separate entries of the source, which are not always exact repeats. Equal values may be shown once. Read-outs that look alike come from different tables or passages of the source. Marks after values point to notes of the source that are not given here.
Experiments:
[1] = molecular target: σ1 receptor; details: Figure 1 reference compounds and fluorescent ligands; cited from earlier work
[2] = molecular target: σ2 receptor; details: cited from earlier work
[3] = molecular target: T1, σ2 receptor (Homo sapiens, UniProt Q5BJF2); assay: Flow cytometry σ2 receptor binding assay with fluorescent ligand in place of the radioligand, MCF7 cells; set-up: This cell line was selected on the basis of its high σ2 receptor expression levels; endogenous in cells; host or cells: MCF7 (and MCF7KO, partial TMEM97 knockdown by shRNA)
T1 sequence (Q5BJF2 whole entry): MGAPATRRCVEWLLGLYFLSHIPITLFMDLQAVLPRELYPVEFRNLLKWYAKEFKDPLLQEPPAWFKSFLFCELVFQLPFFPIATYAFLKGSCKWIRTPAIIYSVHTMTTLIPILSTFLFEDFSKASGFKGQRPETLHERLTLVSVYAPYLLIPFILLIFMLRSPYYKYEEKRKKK
Procedure: Similarly, 2 × 10^5 MCF7 cells/well were seeded in a 12-well plate and allowed to recover for 24 h at 37 °C.
At the end of the incubation periods, cells were washed twice with PBS, detached with 200 mL of Cell Dissociation Solution (Sigma Chemical Co.) for 10 min at 37 °C, centrifuged at 13000g for 5 min, and resuspended in 500 mL of PBS. The fluorescence was recorded using a Bio-Guava easyCyte 5 Flow Cytometry System (Millipore, Billerica, MA), with a 530 nm band-pass filter. For each analysis, 50000 events were collected and analyzed with the InCyte software (Millipore).

[4] = molecular target: T2, σ2 receptor (Rattus norvegicus, UniProt Q5U3Y7); assay: σ2 receptor radioligand binding assay with [3H]DTG, rat liver membranes; details: for σ2 selectivity over σ1: from Ki values at σ1 and σ2; for Ki: [3H]DTG with 1 μM (+)-pentazocine, rat liver membranes, mean of at least two experiments in duplicate, read-out: Ki ± SEM σ2
T2 construct: from tissue; host or cells: rat liver (Wistar Hannover rats, Envigo)
T2 sequence (Q5U3Y7 1-176): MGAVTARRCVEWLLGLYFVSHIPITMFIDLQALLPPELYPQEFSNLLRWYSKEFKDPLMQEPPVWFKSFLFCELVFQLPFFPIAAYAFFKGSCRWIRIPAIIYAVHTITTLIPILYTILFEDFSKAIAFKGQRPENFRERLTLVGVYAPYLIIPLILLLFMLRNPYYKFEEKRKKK
Procedure: (§1) All of the procedures for the binding assays were previously described. σ1 and σ2 receptor binding assays were carried out according to the literature.[25] […] Incubations were stopped by addition of 1 mL of ice-cold buffer [50 mM TRIS (pH 8.0)], and then the suspension was filtered through GF/B presoaked in 0.3% polyethylenimine (PEI) for at least 60 min prior to use. The filters were washed twice with 1 mL of ice-cold buffer. […] Incubations were stopped by addition of 1 mL of ice-cold buffer [50 mM TRIS (pH 8.0)], and then the suspension was filtered through GF/B presoaked in 0.5% polyethylenimine (PEI) for at least 60 min prior to use. The filters were washed twice with 1 mL of ice-cold buffer. […] Scatchard parameters (Kd and Bmax) and apparent inhibition constants (Ki) were determined by nonlinear curve fitting using GraphPad Prism (version 5.0).[64]

[5] = molecular target: T3, σ1 receptor (Cavia porcellus, UniProt Q60492); assay: σ1 receptor radioligand binding assay with (+)-[3H]pentazocine, guinea pig brain membranes; details: mean of at least two experiments in duplicate, read-out: Ki ± SEM σ1
T3 construct: from tissue; host or cells: guinea pig brain without cerebellum (male Dunkin guinea pigs, Envigo)
T3 sequence (Q60492 whole entry): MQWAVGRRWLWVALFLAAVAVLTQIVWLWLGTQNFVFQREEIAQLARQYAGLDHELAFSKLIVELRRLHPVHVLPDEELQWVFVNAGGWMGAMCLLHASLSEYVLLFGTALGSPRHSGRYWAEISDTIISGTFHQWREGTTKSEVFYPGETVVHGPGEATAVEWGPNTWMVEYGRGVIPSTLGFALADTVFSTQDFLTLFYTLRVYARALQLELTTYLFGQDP
Procedure: as §1

[6] = Fluorescence spectroscopy and quantum yield measurements; type: physicochemical
[7] = molecular target: T1, σ2 receptor; assay: Flow cytometry studies in MCF7 and MCF7KO cells; type: cell-based; set-up: This cell line was selected on the basis of its high σ2 receptor expression levels; endogenous in cells; host or cells: MCF7 (and MCF7KO, partial TMEM97 knockdown by shRNA); details: flow cytometry, data not shown
Procedure: Subsequently, the cells were harvested by trypsinization and resuspended in 250 μL of FACS-PBS. The fluorescence intensity was measured by flow cytometry using a BD LSRFortessaTM X-20 cell analyzer (Becton Dickinson, Palo Alto, CA). For this, in total 20000 cells per sample were evaluated. The results were analyzed and quantified using BD FACSDivaTM software.

[8] = Figure 1 reference compounds and fluorescent ligands, read-out: σ2 Ki

In the case of `COc1cc2c(cc1OC)CN(CCCN1CCc3c(OC)cccc3C1=O)CC2` [Compound 2], the Ki [1] is listed as 2440 nM, the Ki [2, 8] is listed as 4.24 nM and the Ki ([3]; displacement of compound 19 (100 nM)) is listed as 4.07 nM. For the same molecule, the Ki ([3]; displacement of compound 29 (100 nM)) was 5.04 nM.
In the case of `COc1cc2c(cc1OC)CN(CCCN1CCc3c(OCCCCCCN4C(=O)c5ccc(N(C)C)cc5C4=O)cccc3C1=O)CC2` [Compound 3], the Ki [1] is listed as > 5000 nM.
In the case of `CC1CCN(CCCCc2cccc3cc(OCCCCCCN4C(=O)c5ccc(N(C)C)cc5C4=O)ccc23)CC1` [Compound 5], the Ki [1] is listed as 5.2 nM and the Ki [2, 8] is listed as 45.6 nM.
In the case of `c1ccc2c(c1)COC21CCN(CCCCn2ccc3ccccc32)CC1` [Compound 8, reference compound], the “σ2 selectivity over σ1” value [4] is listed as 60 fold and the Ki [2, 8] is listed as 0.43 nM.
For `CN(C)c1ccc2c(c1)C(=O)N(CCCn1cc(CCCCN3CCC4(CC3)OCc3ccccc34)c3ccccc31)C2=O` [Compound 16, 2-(3-{3-[4-(3H-Spiro[isobenzofuran-1,4′-piperidin]-1′-yl)butyl]-1H-indol-1-yl}propyl)-5-(dimethylamino)isoindoline-1,3-dione], the Ki [5] was 39.3 ± 9 nM, the Ki [4] was 10.1 ± 1.1 nM and the “σ2 selectivity over σ1” value [4] was 3–10 fold. For the same molecule, the quantum yield ([6]; CHCl3) was 6.85%, the λem ([6]; CHCl3) was 490 nm and the λex ([6]; CHCl3) was 395 nm. The “signals in MCF7 cells” value [7] was “dose-dependent signals” and the “signals in MCF7 cells upon administration of 2” value (from here on “signals … of 2”) [7] was “abated”.
With `CN(C)c1ccc2c(c1)C(=O)N(CCCCCCn1cc(CCCCN3CCC4(CC3)OCc3ccccc34)c3ccccc31)C2=O` [Compound 17, 2-(6-{3-[4-(3H-Spiro[isobenzofuran-1,4′-piperidin]-1′-yl)butyl]-1H-indol-1-yl}hexyl)-5-(dimethylamino)isoindoline-1,3-dione] the Ki [5] was 38.1 ± 5.2 nM, the Ki [4] was 3.84 ± 0.8 nM and the “σ2 selectivity over σ1” value [4] was 3–10 fold. For the same molecule, the quantum yield ([6]; CHCl3) was 6.85% and 6.80%, the λem ([6]; CHCl3) was 490 nm and the λex ([6]; CHCl3) was 395 nm. For the same molecule, the “signals in MCF7 cells” value [7] was “dose-dependent signals” and the “signals … of 2” value [7] was “abated”.
In the case of `O=C(COc1ccc(-c2ccc3n2[B-](F)(F)[N+]2=C(c4cccs4)C=CC2=C3)cc1)NCCCCCCn1cc(CCCCN2CCC3(CC2)OCc2ccccc23)c2ccccc21` [Compound 18, N-(6-{3-[4-(3H-Spiro[isobenzofuran-1,4′-piperidin]-1′-yl)butyl]-1H-indol-1-yl}hexyl)-2-{4-[5,5-difluoro-7-(thiophen-2-yl)-5H-5λ^4,6λ^4-dipyrrolo[1,2-c:2′,1′-f][1,3,2]diazaborinin-3-yl]phenoxy}acetamide], the Ki [5] is reported as 473 ± 30 nM, the Ki [4] is reported as 220 ± 12 nM and the λem ([6]; dissolved in CH3OH) is reported as 630 ^b nm. The λex ([6]; dissolved in CH3OH) was 587 ^b nm.
For `C[N+]1=C(/C=C/C=C/C=C/C=C2\N(CCCCCC(=O)NCCCCCCn3cc(CCCCN4CCC5(CC4)OCc4ccccc45)c4ccccc43)c3ccccc3C2(C)C)C(C)(C)c2ccccc21.[I-]` [Compound 20, 2-{(1E,3E,5E)-7-[(E)-1-{6-[(6-{3-[4-(3H-Spiro[isobenzofuran-1,4′-piperidin]-1′-yl)butyl]-1H-indol-1-yl}hexyl)amino]-6-oxohexyl}-3,3-dimethylindolin-2-ylidene]hepta-1,3,5-trien-1-yl}-1,3,3-trimethyl-3H-indol-1-ium], the Ki [5] was 88.8 ± 15.1 nM, the Ki [4] was 39.8 ± 4.2 nM and the quantum yield ([6]; CHCl3) was 39.08%. It also gave a λem ([6]; CHCl3) of 787 nm and a λex ([6]; CHCl3) of 762 nm.
For `CN(C)c1ccc2c(c1)C(=O)N(c1ccc3ccn(CCCCN4CCC5(CC4)OCc4ccccc45)c3c1)C2=O` [Compound 23, 2-{1-[4-(3H-Spiro[isobenzofuran-1,4′-piperidin]-1′-yl)butyl]-1H-indol-6-yl}-5-(dimethylamino)isoindoline-1,3-dione], the Ki [5] was 296 ± 71 nM, the Ki [4] was 5.07 ± 1.07 nM and the “σ2 selectivity over σ1” value [4] was 60 fold. For the same molecule, the quantum yield ([6]; CHCl3) was 1.31%, the λem ([6]; CHCl3) was 490 nm and the λex ([6]; CHCl3) was 395 nm. For the same molecule, the “signals in MCF7 cells” value [7] was “dose-dependent signals” and the “signals … of 2” value [7] was “abated”.
In the case of `O=C(COc1ccc(C2=[N+]3C(=Cc4ccc(-c5cccs5)n4[B-]3(F)F)C=C2)cc1)Nc1ccc2ccn(CCCCN3CCC4(CC3)OCc3ccccc34)c2c1` [Compound 28, N-{1-[4-(3H-Spiro[isobenzofuran-1,4′-piperidin]-1′-yl)butyl]-1H-indol-6-yl}-2-{4-[5,5-difluoro-7-(thiophen-2-yl)-5H-5λ^4,6λ^4-dipyrrolo[1,2-c:2′,1′-f][1,3,2]diazaborinin-3-yl]phenoxy}acetamide], the Ki [5] is reported as > 5000 nM, the λem ([6]; dissolved in CH3OH) is reported as 630 ^b nm and the λex ([6]; dissolved in CH3OH) is reported as 587 ^b nm.
In the case of `C[N+]1=C(/C=C/C=C/C=C/C=C2/N(CCCCCC(=O)Nc3ccc4ccn(CCCCN5CCC6(CC5)OCc5ccccc56)c4c3)c3ccccc3C2(C)C)C(C)(C)c2ccccc21.[I-]` [Compound 30, 2-[(1E,3E,5E)-7-{(Z)-1-[6-({1-[4-(3H-Spiro[isobenzofuran-1,4′-piperidin]-1′-yl)butyl]-1H-indol-6-yl}amino)-6-oxohexyl]-3,3-dimethylindolin-2-ylidene}hepta-1,3,5-trien-1-yl]-1,3,3-trimethyl-3H-indol-1-ium], the Ki [5] is reported as 569 ± 85 nM, the Ki [4] is reported as 39.4 ± 6.1 nM and the “σ2 selectivity over σ1” value [4] is reported as ~10 fold. The quantum yield ([6]; CHCl3) was 40.24%, the λem ([6]; CHCl3) was 787 nm and the λex ([6]; CHCl3) was 762 nm.
In the case of `CC1CCN(CCOc2ccc(Cl)cc2)CC1` [Compound 31, 1-[2-(4-chlorophenoxy)ethyl]-4-methylpiperidine], the Ki ([2]; read-out: Ki at the σ2 receptor) is given as 239 nM.
